This passage reports TGI and GI50 results from PubChem BioAssay (NCI).

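Tested at 5 concentrations; 48 h exposure; 96-well plates; endpoints linearly interpolated, else capped at highest concentration. At the GI50, growth is halved. TGI: total growth inhibition.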

Among the test systems are NCI-H23 lung; SNB-75 CNS; OVCAR-8 ovarian; SNB-19 CNS; MOLT-4 leukemia; CAKI-1 renal; HOP-92 NSCLC; LOX IMVI melanoma; NCI/ADR-RES ovarian.
Test in all cases: DTP human tumour cell line panel, 48 h

With `COc1cccc(/C=C2\N=C(Cl)OC2=O)c1O`, the TGI in the experiment with NCI-H23 lung is > 100 µM; in the experiment on SNB-75 CNS, > 93.3 µM; with OVCAR-8 ovarian, > 100 µM; with SNB-19 CNS it was > 100 µM; with MOLT-4 leukemia, > 100 µM; in the experiment on CAKI-1 renal, > 100 µM. Also, the TGI in the experiment on HOP-92 NSCLC and in the experiment on LOX IMVI melanoma was > 100 µM in each case.

Regarding `CC(C)(C)c1cc[n+](C[n+]2ccc(C(C)(C)C)cc2)cc1`, the TGI in the experiment on NCI-H23 lung, with NCI/ADR-RES ovarian, in the experiment with SNB-75 CNS, in the experiment with OVCAR-8 ovarian, in the experiment on SNB-19 CNS and in the experiment with MOLT-4 leukemia was > 100 µM throughout. Further, the TGI with CAKI-1 renal and in the experiment with HOP-92 NSCLC was > 100 µM each time.

For `C=C1C2CC(OC(C)=O)C3(C)C(c4ccoc4)OC(=O)[C@@H](O)[C@]13OC1C[C@H](OC(C)=O)C(C)(C)[C@H](C(O)C(=O)OC)[C@]12C` (stereo partly drawn), the TGI is > 100 µM in the experiment on NCI-H23 lung; > 100 µM with SNB-75 CNS; > 100 µM in the experiment on OVCAR-8 ovarian; > 100 µM in the experiment with SNB-19 CNS; > 100 µM in the experiment with MOLT-4 leukemia; 57.6 µM with HOP-92 NSCLC. Moreover, the TGI in the experiment with LOX IMVI melanoma is > 100 µM.

Regarding `CC1=NC(C)=C(/C(C)=N/NC(=O)c2ccccc2O)C(C)/C1=C(/C)NNC(=O)c1ccccc1O` (stereo not drawn), the TGI in the experiment on NCI-H23 lung was 26.9 µM; in the experiment with SNB-75 CNS it was 93.6 µM; with OVCAR-8 ovarian it was 50.5 µM; in the experiment with SNB-19 CNS it was > 100 µM; with MOLT-4 leukemia, 23.8 µM; in the experiment on CAKI-1 renal, > 100 µM. Moreover, the TGI is 85.9 µM with HOP-92 NSCLC and 51.7 µM in the experiment with LOX IMVI melanoma.

Turning to `CC(=O)O[C@H]1CC[C@@]2(C)C(=CC[C@H]3C(CC#N)[C@@](C)(C#N)CCC32)C1` (stereo partly drawn), the TGI in the experiment with NCI-H23 lung was > 100 µM; in the experiment with SNB-75 CNS, > 100 µM; with OVCAR-8 ovarian, > 100 µM; in the experiment on SNB-19 CNS, > 100 µM; with MOLT-4 leukemia, > 100 µM; in the experiment with HOP-92 NSCLC, 88.9 µM. Besides, the TGI in the experiment with LOX IMVI melanoma was > 100 µM.

`CSc1nc2c(nc(N)n2C2OC(CO)C(O)C(O)C2O)c(=O)[nH]1` (stereo not drawn): the TGI in the experiment on NCI-H23 lung, in the experiment on SNB-75 CNS, in the experiment with OVCAR-8 ovarian, in the experiment on SNB-19 CNS, in the experiment on MOLT-4 leukemia and in the experiment on CAKI-1 renal was > 100 µM throughout. Moreover, the TGI in the experiment on HOP-92 NSCLC and with LOX IMVI melanoma was > 100 µM throughout.

On to `COc1nc(NC2OC(COC(C)=O)C(OC(C)=O)C(OC(C)=O)C2OC(C)=O)c(N=C(C)C(C)=O)c(=O)n1C` (stereo not drawn), for which the TGI with NCI-H23 lung, in the experiment with SNB-75 CNS, in the experiment on OVCAR-8 ovarian, with SNB-19 CNS, in the experiment on MOLT-4 leukemia and in the experiment on CAKI-1 renal was > 100 µM in each case. Also, the TGI with HOP-92 NSCLC and in the experiment on LOX IMVI melanoma was > 100 µM each time.

`COc1ccc(/C=C/c2cc(OC)c(OC)c(OC)c2)cc1OC`: the TGI in the experiment on NCI-H23 lung, in the experiment on SNB-75 CNS, with OVCAR-8 ovarian, with SNB-19 CNS, in the experiment with MOLT-4 leukemia and with CAKI-1 renal was > 100 µM throughout. The TGI with HOP-92 NSCLC and in the experiment with LOX IMVI melanoma was > 100 µM each time.

Regarding `CC(=O)OC1CC2C(C)(C)C(=O)C=C[C@]2(C)C2CCC3(C)C(c4ccoc4)C(=O)C4OC43[C@]12C` (stereo partly drawn), the TGI with NCI-H23 lung is 31.2 µM; in the experiment with SNB-75 CNS, 75.3 µM; in the experiment with OVCAR-8 ovarian, 64.4 µM; in the experiment on SNB-19 CNS, 80.7 µM; with MOLT-4 leukemia, 50.8 µM; in the experiment on CAKI-1 renal, > 100 µM. For the same compound, the TGI is 38.1 µM in the experiment on HOP-92 NSCLC and 25.9 µM in the experiment on LOX IMVI melanoma.

For `C/C(=N\NC(=O)c1ccccc1O)c1c(O)cc(C)oc1=O`, the TGI with NCI-H23 lung was > 100 µM; in the experiment with SNB-75 CNS, > 100 µM; with OVCAR-8 ovarian it was > 100 µM; with SNB-19 CNS it was > 100 µM; in the experiment on MOLT-4 leukemia it was > 100 µM; in the experiment on HOP-92 NSCLC, 68.3 µM. Further, the TGI with LOX IMVI melanoma was > 100 µM.

Turning to `O=[N+]([O-])c1cc(I)cc(/C=N/NS(=O)(=O)c2ccc(F)cc2)c1O`, the TGI in the experiment on NCI-H23 lung was 38.9 µM; with SNB-75 CNS, 66.3 µM; in the experiment with OVCAR-8 ovarian, 55.3 µM; with SNB-19 CNS, > 100 µM; in the experiment on MOLT-4 leukemia it was 57.7 µM; in the experiment with CAKI-1 renal it was 63.1 µM. The TGI stood at 36.3 µM with HOP-92 NSCLC and 57.4 µM in the experiment with LOX IMVI melanoma.

On to `C=C(C)[C@@H]1C/C=C(/COC(C)=O)CC[C@H]2O[C@@]2(C)CC/C=C(\C)CC1`, for which the GI50 with NCI-H23 lung was > 100 µM; in the experiment with NCI/ADR-RES ovarian, > 100 µM; in the experiment on OVCAR-8 ovarian it was > 100 µM; in the experiment with SNB-19 CNS, > 100 µM; with MOLT-4 leukemia, 28.4 µM; in the experiment on CAKI-1 renal, > 100 µM. Besides, the GI50 was > 100 µM in the experiment with HOP-92 NSCLC and 20.3 µM in the experiment on LOX IMVI melanoma. Besides, the TGI was > 100 µM in the experiment on NCI-H23 lung; > 100 µM in the experiment with NCI/ADR-RES ovarian; > 100 µM in the experiment with OVCAR-8 ovarian; > 100 µM in the experiment on SNB-19 CNS; 82.3 µM in the experiment with MOLT-4 leukemia; > 100 µM with CAKI-1 renal. The TGI was > 100 µM with HOP-92 NSCLC and 46.5 µM in the experiment with LOX IMVI melanoma.

With `Cn1nc(-c2ccccc2)c2c(/C=C/c3ccc(F)cc3)onc2c1=O`, the TGI is > 100 µM in the experiment with NCI-H23 lung; > 100 µM in the experiment on OVCAR-8 ovarian; > 100 µM with MOLT-4 leukemia; 66 µM with CAKI-1 renal; > 100 µM in the experiment on HOP-92 NSCLC; > 100 µM with LOX IMVI melanoma.

In the case of `CCCCCCCCCCNC(=S)OC`, the TGI is > 100 µM with NCI-H23 lung; > 100 µM with SNB-75 CNS; > 100 µM with OVCAR-8 ovarian; > 100 µM in the experiment with SNB-19 CNS; 30.8 µM in the experiment with MOLT-4 leukemia; > 100 µM with CAKI-1 renal. For the same compound, the results for the TGI in the experiment on HOP-92 NSCLC and in the experiment on LOX IMVI melanoma were 65.9 µM and 39.6 µM, respectively.

As to `Cn1c(=O)nc2n(-c3ccc(F)c(F)c3)c3ccccc3nc-2c1=O`, the TGI with NCI-H23 lung is 29.9 µM; with SNB-75 CNS, 75 µM; with OVCAR-8 ovarian, 68.1 µM; in the experiment on SNB-19 CNS it was 44.9 µM; in the experiment with CAKI-1 renal, > 100 µM.

`CC(=O)N(N=O)c1ccc(N(N=O)C(C)=O)cc1`: the total growth inhibition concentration (TGI) with NCI-H23 lung, in the experiment with SNB-75 CNS, in the experiment with OVCAR-8 ovarian, in the experiment on SNB-19 CNS, in the experiment on MOLT-4 leukemia and with CAKI-1 renal was > 100 µM each time. Further, the TGI with HOP-92 NSCLC and with LOX IMVI melanoma was > 100 µM each time.
